From PubChem BioAssay AID1745844 (Carcinogenic Potency Database (CPDB), 2022)
Active and inactive are the calls of the source. The rule behind the calls is not given here.

System: rodent lifetime carcinogenesis bioassay, tumor incidence TD50
Experiment: carcinogenic potency in animals, long-term in vivo studies, CPDB compilation (AID 1745844)

## Cc1cnc2ccc3c(nc(N)n3C)c2n1
mouse, strain CDF1, females, in feed, site: all sites, lesion: lymphoma and leukemia, combined, dosed 84 weeks, study length 84 weeks
  TD50: 6820 mg/kg/day
mouse, strain CDF1, females, in feed, site: liver, lesion: hepatocellular adenoma, dosed 84 weeks, study length 84 weeks
  TD50: 14.2 mg/kg/day
mouse, strain CDF1, females, in feed, site: liver, lesion: hepatocellular carcinoma, dosed 84 weeks, study length 84 weeks
  TD50: 27.8 mg/kg/day
mouse, strain CDF1, females, in feed, site: liver, lesion: several types, types named in the paper, dosed 84 weeks, study length 84 weeks
  TD50: 14.2 mg/kg/day
mouse, strain CDF1, females, in feed, site: lung, lesion: adenocarcinoma, dosed 84 weeks, study length 84 weeks
  TD50: 257 mg/kg/day
mouse, strain CDF1, females, in feed, site: lung, lesion: adenoma, dosed 84 weeks, study length 84 weeks
  TD50: 143 mg/kg/day
mouse, strain CDF1, females, in feed, site: lung, lesion: several types, types named in the paper, dosed 84 weeks, study length 84 weeks
  TD50: 77.2 mg/kg/day
mouse, strain CDF1, males, in feed, site: all sites, lesion: lymphoma and leukemia, combined, dosed 84 weeks, study length 84 weeks
  TD50: 109 mg/kg/day
mouse, strain CDF1, males, in feed, site: liver, lesion: hepatocellular adenoma, dosed 84 weeks, study length 84 weeks
  TD50: 86.9 mg/kg/day
mouse, strain CDF1, males, in feed, site: liver, lesion: hepatocellular carcinoma, dosed 84 weeks, study length 84 weeks
  TD50: 102 mg/kg/day
mouse, strain CDF1, males, in feed, site: liver, lesion: several types, types named in the paper, dosed 84 weeks, study length 84 weeks
  TD50: 83.8 mg/kg/day
mouse, strain CDF1, males, in feed, site: lung, lesion: adenocarcinoma, dosed 84 weeks, study length 84 weeks
  TD50: 236 mg/kg/day
mouse, strain CDF1, males, in feed, site: lung, lesion: adenoma, dosed 84 weeks, study length 84 weeks
  TD50: 262 mg/kg/day
mouse, strain CDF1, males, in feed, site: lung, lesion: several types, types named in the paper, dosed 84 weeks, study length 84 weeks
  TD50: 134 mg/kg/day
rat, strain F344/DuCrj, females, in feed, site: Zymbal's gland, lesion: squamous-cell carcinoma, dosed 61 weeks, study length 61 weeks
  TD50: 6.31 mg/kg/day
rat, strain F344/DuCrj, females, in feed, site: clitoral gland, lesion: squamous-cell carcinoma, dosed 61 weeks, study length 61 weeks
  TD50: 4.72 mg/kg/day
rat, strain F344/DuCrj, females, in feed, site: liver, lesion: neoplastic nodule, dosed 61 weeks, study length 61 weeks
  TD50: 6.31 mg/kg/day
rat, strain F344/DuCrj, females, in feed, site: skin, lesion: squamous-cell carcinoma, dosed 61 weeks, study length 61 weeks
  TD50: 87.2 mg/kg/day
rat, strain F344/DuCrj, males, in feed, site: Zymbal's gland, lesion: sebaceous adenoma, dosed 56 weeks, study length 56 weeks
  TD50: 38.9 mg/kg/day
rat, strain F344/DuCrj, males, in feed, site: Zymbal's gland, lesion: several types, types named in the paper, dosed 56 weeks, study length 56 weeks
  TD50: 4.91 mg/kg/day
rat, strain F344/DuCrj, males, in feed, site: Zymbal's gland, lesion: several types, types named in the paper, dosed 61 weeks, study length 61 weeks
  TD50: 2.72 mg/kg/day
rat, strain F344/DuCrj, males, in feed, site: Zymbal's gland, lesion: squamous-cell carcinoma, dosed 56 weeks, study length 56 weeks
  TD50: 8.6 mg/kg/day
rat, strain F344/DuCrj, males, in feed, site: Zymbal's gland, lesion: squamous-cell carcinoma, dosed 61 weeks, study length 61 weeks
  TD50: 3.59 mg/kg/day
rat, strain F344/DuCrj, males, in feed, site: Zymbal's gland, lesion: squamous-cell papilloma, dosed 56 weeks, study length 56 weeks
  TD50: 29.1 mg/kg/day
rat, strain F344/DuCrj, males, in feed, site: Zymbal's gland, lesion: squamous-cell papilloma, dosed 61 weeks, study length 61 weeks
  TD50: 35.8 mg/kg/day
rat, strain F344/DuCrj, males, in feed, site: liver, lesion: hepatocellular adenoma, dosed 56 weeks, study length 56 weeks
  TD50: 3.15 mg/kg/day
rat, strain F344/DuCrj, males, in feed, site: liver, lesion: hepatocellular carcinoma, dosed 56 weeks, study length 56 weeks
  TD50: 2.91 mg/kg/day
rat, strain F344/DuCrj, males, in feed, site: liver, lesion: hepatocellular carcinoma, dosed 61 weeks, study length 61 weeks
  TD50: 1.26 mg/kg/day
rat, strain F344/DuCrj, males, in feed, site: liver, lesion: neoplastic nodule, dosed 61 weeks, study length 61 weeks
  TD50: 73.5 mg/kg/day
rat, strain F344/DuCrj, males, in feed, site: liver, lesion: several types, types named in the paper, dosed 56 weeks, study length 56 weeks
  TD50: 1.24 mg/kg/day
rat, strain F344/DuCrj, males, in feed, site: liver, lesion: several types, types named in the paper, dosed 61 weeks, study length 61 weeks
  carcinogen call: positive
rat, strain F344/DuCrj, males, in feed, site: skin, lesion: basal-cell carcinoma, dosed 61 weeks, study length 61 weeks
  TD50: 73.5 mg/kg/day
rat, strain F344/DuCrj, males, in feed, site: skin, lesion: sebaceous adenoma, dosed 56 weeks, study length 56 weeks
  TD50: 58.8 mg/kg/day
rat, strain F344/DuCrj, males, in feed, site: skin, lesion: several types, types named in the paper, dosed 56 weeks, study length 56 weeks
  TD50: 12 mg/kg/day
rat, strain F344/DuCrj, males, in feed, site: skin, lesion: several types, types named in the paper, dosed 61 weeks, study length 61 weeks
  TD50: 8.76 mg/kg/day
rat, strain F344/DuCrj, males, in feed, site: skin, lesion: squamous-cell carcinoma, dosed 56 weeks, study length 56 weeks
  TD50: 59.2 mg/kg/day
rat, strain F344/DuCrj, males, in feed, site: skin, lesion: squamous-cell carcinoma, dosed 61 weeks, study length 61 weeks
  TD50: 13.1 mg/kg/day
rat, strain F344/DuCrj, males, in feed, site: skin, lesion: squamous-cell papilloma, dosed 56 weeks, study length 56 weeks
  TD50: 59.2 mg/kg/day
rat, strain F344/DuCrj, males, in feed, site: skin, lesion: squamous-cell papilloma, dosed 61 weeks, study length 61 weeks
  TD50: 73.5 mg/kg/day
rat, strain F344/DuCrj, males, in feed, site: skin, lesion: trichoepithelioma, dosed 56 weeks, study length 56 weeks
  TD50: 38.9 mg/kg/day

## CC(O)CN(C)N=O (stereo not given)
rat, strain F344/DuCrj, males, in drinking water, site: liver, lesion: one or several types, types not named, dosed 40 weeks, study length 78 weeks
  carcinogen call: negative (inactive)
rat, strain Fischer 344, females, in drinking water, site: esophagus, lesion: carcinoma, dosed 30 weeks, study length 75 weeks
  TD50: 0.408 mg/kg/day
rat, strain Fischer 344, females, in drinking water, site: esophagus, lesion: several types, types named in the paper, dosed 30 weeks, study length 75 weeks
  TD50: 0.105 mg/kg/day
rat, strain Fischer 344, females, in drinking water, site: liver, lesion: hepatocellular carcinoma, dosed 30 weeks, study length 75 weeks
  TD50: 0.895 mg/kg/day
rat, strain Fischer 344, females, in drinking water, site: liver, lesion: neoplastic nodule, dosed 30 weeks, study length 75 weeks
  TD50: 2.54 mg/kg/day
rat, strain Fischer 344, females, in drinking water, site: liver, lesion: several types, types named in the paper, dosed 30 weeks, study length 75 weeks
  TD50: 0.798 mg/kg/day
rat, strain Fischer 344, females, in drinking water, site: lung, lesion: several types, types named in the paper, dosed 30 weeks, study length 75 weeks
  TD50: 0.408 mg/kg/day
rat, strain Fischer 344, females, in drinking water, site: nasal cavity, lesion: several types, types named in the paper, dosed 30 weeks, study length 75 weeks
  TD50: 0.0486 mg/kg/day
rat, strain Fischer 344, males, in drinking water, site: esophagus, lesion: several types, types named in the paper, dosed 30 weeks, study length 75 weeks
  TD50: 0.17 mg/kg/day
rat, strain Fischer 344, males, in drinking water, site: nasal cavity, lesion: several types, types named in the paper, dosed 30 weeks, study length 75 weeks
  TD50: 0.0442 mg/kg/day
